Our source for the Km values is article PMC8537011 (Journal of Fungi, 2021).

This test deals with T1, PELa (P. expansum Lactonase) (Penicillium expansum, UniProt A0A0A2K035).
T1 construct: gene PEX2_072460
Briefly: UV absorbance at […] nm, initial rates, Michaelis-Menten fit. The class given is biochemical. Conditions: 100 mM Tris-HCl pH 7.5, NaCl, 100 µM ZnCl2, 25 °C; 0.6 μM enzyme, 0-0.4 mM patulin.

T1 sequence (A0A0A2K035 entry or part of it): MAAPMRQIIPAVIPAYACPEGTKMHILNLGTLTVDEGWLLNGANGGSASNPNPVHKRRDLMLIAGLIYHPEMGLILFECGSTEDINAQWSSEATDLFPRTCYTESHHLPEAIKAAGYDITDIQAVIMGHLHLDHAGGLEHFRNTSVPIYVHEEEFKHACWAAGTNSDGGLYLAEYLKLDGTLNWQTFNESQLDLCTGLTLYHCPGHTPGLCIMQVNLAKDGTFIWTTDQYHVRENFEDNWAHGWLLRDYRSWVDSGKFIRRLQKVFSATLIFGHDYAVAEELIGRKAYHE

For the compound `O=C1C=C2C(=CCOC2O)O1` (stereo not shown) [patulin], the Km is 377 ± 112 µM.

What is called Km is the concentration of substrate that gives half-maximal velocity.
